Where a name gives a salt, the structure may show the parent alone. Where only a bound is given, the exact number is not on record here.

Chain of PDE10A (Q9Y233 whole entry, looked up): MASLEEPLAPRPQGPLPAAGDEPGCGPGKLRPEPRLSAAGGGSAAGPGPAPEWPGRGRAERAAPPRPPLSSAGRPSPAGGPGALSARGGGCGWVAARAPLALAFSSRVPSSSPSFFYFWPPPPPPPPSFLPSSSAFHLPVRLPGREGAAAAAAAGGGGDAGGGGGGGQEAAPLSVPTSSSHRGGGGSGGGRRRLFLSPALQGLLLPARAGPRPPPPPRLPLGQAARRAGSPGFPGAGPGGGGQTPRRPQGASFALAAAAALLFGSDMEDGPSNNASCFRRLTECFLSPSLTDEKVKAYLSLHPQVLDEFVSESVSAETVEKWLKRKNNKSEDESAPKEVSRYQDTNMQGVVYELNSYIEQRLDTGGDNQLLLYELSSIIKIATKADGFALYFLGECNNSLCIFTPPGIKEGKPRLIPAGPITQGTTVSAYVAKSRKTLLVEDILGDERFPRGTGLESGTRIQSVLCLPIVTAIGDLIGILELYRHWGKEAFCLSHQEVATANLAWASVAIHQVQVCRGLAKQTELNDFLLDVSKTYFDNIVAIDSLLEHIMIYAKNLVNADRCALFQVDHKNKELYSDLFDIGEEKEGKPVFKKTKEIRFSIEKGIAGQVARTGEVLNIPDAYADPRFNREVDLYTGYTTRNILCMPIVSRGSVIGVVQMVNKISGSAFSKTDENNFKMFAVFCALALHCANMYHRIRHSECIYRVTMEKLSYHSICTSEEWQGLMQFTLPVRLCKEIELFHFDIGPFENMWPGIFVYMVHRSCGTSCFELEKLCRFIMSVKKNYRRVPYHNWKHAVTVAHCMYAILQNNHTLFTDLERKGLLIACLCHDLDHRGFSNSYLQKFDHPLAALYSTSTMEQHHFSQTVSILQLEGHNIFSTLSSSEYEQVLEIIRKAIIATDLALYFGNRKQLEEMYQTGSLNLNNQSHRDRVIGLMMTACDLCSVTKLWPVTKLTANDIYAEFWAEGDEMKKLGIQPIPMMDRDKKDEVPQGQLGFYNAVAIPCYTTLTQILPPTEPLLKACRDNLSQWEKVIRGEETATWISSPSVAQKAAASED
Chain of PDE4D3 (Q08499 other isoform, or with tags, fused parts or gaps): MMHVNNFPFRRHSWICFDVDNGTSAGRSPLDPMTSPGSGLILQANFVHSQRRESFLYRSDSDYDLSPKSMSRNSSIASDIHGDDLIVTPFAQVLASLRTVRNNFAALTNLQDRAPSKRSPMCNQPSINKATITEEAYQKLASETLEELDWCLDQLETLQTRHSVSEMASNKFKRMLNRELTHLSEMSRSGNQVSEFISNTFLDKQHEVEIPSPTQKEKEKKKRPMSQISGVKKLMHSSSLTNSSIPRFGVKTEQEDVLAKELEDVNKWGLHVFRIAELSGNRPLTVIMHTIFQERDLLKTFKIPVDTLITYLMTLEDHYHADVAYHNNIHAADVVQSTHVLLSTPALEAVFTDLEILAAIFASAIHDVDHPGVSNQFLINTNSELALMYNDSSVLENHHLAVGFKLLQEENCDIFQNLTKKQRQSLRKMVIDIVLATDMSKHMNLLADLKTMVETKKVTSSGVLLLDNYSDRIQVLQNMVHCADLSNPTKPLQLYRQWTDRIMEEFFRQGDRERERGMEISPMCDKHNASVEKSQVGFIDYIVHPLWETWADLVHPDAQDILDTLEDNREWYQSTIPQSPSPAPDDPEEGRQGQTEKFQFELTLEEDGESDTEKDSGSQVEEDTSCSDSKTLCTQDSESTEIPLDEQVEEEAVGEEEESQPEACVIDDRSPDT

The target of one test is PDE10A (Homo sapiens, UniProt Q9Y233). Briefly: Diaxonhit phosphodiesterase assay (TR-FRET, LANCE cAMP kit), PDE10A. The format is biochemical. How it is done:
(§1) Diaxonhit Phosphodiesterase Assay (PDE10A and PDE4D3)
The PDE assay is based on the homogenous time-resolved fluorescence resonance energy transfer (TR-FRET) technology (LANCE® from Perkin Elmer). […] When there is PDE activity, resulting in the degradation of the cyclic nucleotide, the complex is not formed and a decrease in signal is observed.
The phosphodiesterase assay was developed using the LANCE® cAMP kit (PerkinElmer). The assay buffer contained HBSS with 5 mM HEPES, 0.1% BSA, and 1.5 mM MgCl2, pH 7.4. […] Chemical compounds were dissolved in DMSO (final concentration 2% (v/v)).
(§2) In a 384-well plate, 2 μL of the inhibitor and 3 μL PDE were added to the well, followed by the addition of 5 μl substrate biotinylated cAMP (1:5). After 60 min incubation at room temperature, 10 μL of assay detection mixture was added to the assay plate. After 1 h at room temperature, the signal was measured on EnVision™ (Perkin Elmer).
As usually defined, the IC50 is the concentration at which inhibition is half-maximal. Higher therefore signals lower potency. For the compound `COc1cc2cncc(Cc3cnc4ccccc4c3)c2cc1O` [Compound 29, 7-methoxy-4-(quinolin-3-ylmethyl)isoquinolin-6-ol dihydrochloride], the half-inhibitory concentration (IC50) is above 10000 nM.
Take `COc1cc2c(Cc3cnc4ccccc4c3)cnc(C3CCCCC3)c2cc1OC` [Compound 71, 3-((1-cyclohexyl-6,7-dimethoxyisoquinolin-4-yl)methyl)quinoline dihydrochloride]: the concentration for half-maximal inhibition (IC50) is above 10000 nM.
For the compound `COc1cc2c(Cc3cnc4ccccc4c3)cncc2cc1O` [Compound 30, 6-methoxy-4-(quinolin-3-ylmethyl)isoquinolin-7-ol dihydrochloride], the IC50 is above 10000 nM.

A further test concerns the target PDE4D3 (Homo sapiens (Human), UniProt Q08499). Nature of the test: Diaxonhit phosphodiesterase assay (TR-FRET, LANCE cAMP kit), PDE4D3. The format is biochemical.
Source text: as §1
The PDE assay is based on the homogenous time-resolved fluorescence resonance energy transfer (TR-FRET) technology (LANCE® from Perkin Elmer). This competition based assay is formatted using a cAMP specific antibody labeled with the dye, Alexa Fluor® 647, biotin-cAMP and streptavidin labeled with Europium (Eu-SA). As the complex of Eu-SA/biotin-cAMP/Alexa Fluor 647 labeled antibody is formed, an increase in signal is generated. When there is PDE activity, resulting in the degradation of the cyclic nucleotide, the complex is not formed and a decrease in signal is observed.
The phosphodiesterase assay was developed using the LANCE® cAMP kit (PerkinElmer). The assay buffer contained HBSS with 5 mM HEPES, 0.1% BSA, and 1.5 mM MgCl2, pH 7.4. PDE10A (BPS Bioscience) was used at 200 pg/well (with a specific activity of 3200 pmole/min/μg with assay conditions: 10 mM Tris-HCl, pH 7.4, 10 mM MgCl2, 1 mM MnCl2, 200 μM cAMP, 2.5 kU 5′ nucleotidase, 37° C., 20 min) and PDE4D3 (BPS Bioscience) was used at 100 pg/well (with a specific activity of 32713 pmole/min/μg with assay conditions: 10 mM Tris-HCl, pH 7.4, 10 mM MgCl2, 1 mM MnCl2, 200 μM cAMP, 2.5 kU 5′ nucleotidase, 37° C., 20 min). The Biotin-cAMP tracer, supplied in 10 mmol/L Tris-HCl buffered (pH 8.0) salt solution with 1 mmol/L ethylenediaminetetraacetic acid (EDTA), 0.1% bovine serum albumin (BSA), and 0.05% sodium azide, is used at a dilution of 1/375. The assay detection mixture contained the LANCE Eu-W8044 labeled streptavidin 1/2250 (supplied in 50 mmol/L Tris-HCl buffered (pH 7.8) salt solution with 0.9% sodium chloride (NaCl), 0.1% BSA, and 0.05% sodium azide) and the Alexa Fluor® 647-anti cAMP antibody 1/200 (supplied in 50 mmol/L Tris-HCl buffered (pH 7.8) salt solution with 0.9% NaCl, 0.1% BSA, and 0.05% sodium azide). Chemical compounds were dissolved in DMSO (final concentration 2% (v/v)).
as §2
In general terms: TR-FRET usually uses a lanthanide donor and a delayed reading to cut background.
As for `CCc1ncc(Cc2ccc3cccc(NC(=O)C(N)=O)c3n2)c2cc(OC)c(OC)cc12` [Compound 93, N^1-(2-((1-ethyl-6,7-dimethoxyisoquinolin-4-yl)methyl)quinolin-8-yl)oxalamide], the 50% inhibitory concentration (IC50) was 398 nM.
Turning to `CCc1ncc(Cc2ccc3cccc(O)c3n2)c2cc(OC)c(OC)cc12` [Compound 83, 2-((1-ethyl-6,7-dimethoxyisoquinolin-4-yl)methyl)quinolin-8-ol], the concentration for half-maximal inhibition (IC50) was found to be 439 nM. This IC50 and that of the compound before are within 1.5-fold of each other.
`COCc1ncc(Cc2cnc3ccc(O)c(C(F)(F)F)c3c2)c2cc(OC)c(OC)cc12` [Compound 169, 3-((6,7-dimethoxy-1-(methoxymethyl)isoquinolin-4-yl)methyl)-5-(trifluoromethyl)quinolin-6-ol] had a half-inhibitory concentration (IC50) of 194 nM.
The same measure, in the same setting: with `CCCc1ncc(Cc2cnc3ccc(O)c(C(F)(F)F)c3c2)c2cc(OC)c(OC)cc12` [Compound 162, 3-((6,7-dimethoxy-1-propylisoquinolin-4-yl)methyl)-5-(trifluoromethyl)quinolin-6-ol] the figure was 232 nM.
